The source of these data is patent US20240277684A1, “BLOCKADE OF CHEMOKINE (C-C MOTIF) RECEPTOR 2 DURING FLUID RESUSCITATION” (University of South Florida, priority 2022, published 2024).

For data set [1], the system named is hemorrhagic shock. The experiment in a line: Example 2 Series 1: 30 min hemorrhagic shock, fluid resuscitation until t=90 min. Type of data set: in vivo, rat. The method, then:
(§1) The hemorrhagic shock models were performed as described previously, with slight modifications (DeSantis A J, et al., The Chemokine (C-C Motif) Receptor 2 Antagonist INCB3284 Reduces Fluid Requirements and Protects From Hemodynamic Decompensation During Resuscitation From Hemorrhagic Shock. Crit Care Explor 2022;4(5):e0701; Bach H H, et al., Chemokine (C-X-C motif) receptor 4 and atypical chemokine receptor 3 regulate vascular alpha(1)-adrenergic receptor function. Mol Med 2014; 20:435-47; Nassoiy S P, et al., Effects of the Kv7 voltage activated potassium channel inhibitor linopirdine in rat models of hemorrhagic shock. Clin Exp Pharmacol Physiol 2018. doi: 10.1111/1440-1681.12958. PubMed PMID: 29702725; Bach H H, et al., Proteasome inhibition prolongs survival during lethal hemorrhagic shock in rats. J Trauma Acute Care Surg 2013; 74(2):499-507). In brief, anesthesia induction was performed with the animal and isoflurane-soaked gauze placed in a bell jar. After anesthesia induction, the animals were transferred to the operative field and anesthesia was maintained with 2.7% isoflurane administered via nose-cone inhalation with the SomnoSuite small animal anesthesia system (Kent Scientific Corporation, Torrington, CT, USA). […] Using a direct cut-down technique, the left femoral artery was isolated and cannulated with a 24-gauge peripheral intravenous catheter to allow for blood withdrawal, hemodynamic monitoring, drug administration, and fluid resuscitation. After catheter placement, isoflurane was decreased to 1.5%. Hemodynamics were continuously monitored with the Surgivet invasive blood pressure monitor (Med-Electronics, Beltsville, MD, USA). Blood pressures were recorded at 1-5 min intervals during the hemorrhage and resuscitation periods. Four subsequent series of experiments were performed. All experiments in each series were performed in alternating order. In all experiments animals were continuously monitored and remained under general anesthesia until euthanasia or death, as defined by asystole or loss of pulse pressure.
Series 1: To assess the effects of SB328437 treatment after hemorrhagic shock and fluid resuscitation, and to be able to compare findings with the previous study on the effects of CCR2 and CCR5 inhibition, rats were hemorrhaged to a mean arterial blood pressure (MAP) of less than or equal to 30 mmHg for a period of 30 minutes. At the end of the hemorrhagic shock period (t=30 min), animals were injected with either vehicle (1 mL lactated Ringer's solution (LR), n=5), 0.25 μmol/kg SB328437 (n=3) or 1.1 μmol/kg SB328437 (n=3) in 1 mL LR, followed by fluid resuscitation with 1 mL bolus injections of LR to maintain a systolic blood pressure of 90 mm Hg or an MAP of 60 mm Hg until t=90 min, as described. To avoid fluid overload, bolus injections of LR were limited to 1 mL/min. At t=90 min, surviving animals were euthanized (5% isoflurane inhalation, bilateral pneumothorax).

A further data set concerns severe hemorrhagic shock. The experiment in a line: Example 2 Series 4: lethal hemorrhage without fluid resuscitation. The following applies: 5 μmol/kg INCB3284 or 1 μmol/kg SB328437 after 40% TBV hemorrhage. Type of data set: in vivo, rat. As for the experimental part: as §1
Series 4: The purpose of these experiments was to determine whether treatment with the chemokine receptor antagonists increases shock tolerance, blood pressure and survival time without additional fluid resuscitation. As such, death is an intentional endpoint. Earlier endpoints are unable to answer these questions and alternatives are not available. Rats were hemorrhaged 40% total blood volume (TBV) within 10 min. At t=15 min, animals were injected with vehicle (1 mL NS, n=3), 5 μmol/kg INCB3284 in 1 mL NS (n=5) or […] SB 328437 in 1 mL NS (n=5). Animals were then hemorrhaged 2% TBV every 5 minutes until death.

A short description of another data set: solubility. Type of data set: physicochemical.
The subject of data set [2] is hemorrhagic shock. The experiment in a line: Example 2 Series 2: 60 min hemorrhagic shock, single dose, fluid resuscitation until t=300 min. The format is in vivo, rat. The method, then: as §1
Series 2: Rats were hemorrhaged to a MAP of less than or equal to 30 mmHg for a period of 60 min, followed by fluid resuscitation until t=300 min as in Series 1. At the end of the hemorrhagic shock period (t=60 min), animals were injected with 1 mL of normal saline (NS) (n=6), 5 μmol/kg (n=6) INCB3284 in 1 mL NS or 1.1 μmol/kg SB 328437 (n=6) in 1 mL NS at t=60 min. At t=0 min, 60 min, 120 min, 180 min, 240 min and 300 min, blood samples (0.3 ml) were obtained and used for arterial blood gas analyses and measurements of routine laboratory parameters. At t=300 min, surviving animals were euthanized (5% isoflurane inhalation, bilateral pneumothorax).
Arterial blood gases and routine laboratory parameters. Arterial blood gases, electrolytes, creatinine, lactate, hematocrit and hemoglobin were analyzed using the Element point of care veterinary blood gas, electrolyte and critical care analyzer (Cuattro Veterinary USA, Loveland, CO, USA).

For data set [3], the target named is T1, CCR3 (Homo sapiens, UniProt P51677).
T1 sequence (P51677 1-355): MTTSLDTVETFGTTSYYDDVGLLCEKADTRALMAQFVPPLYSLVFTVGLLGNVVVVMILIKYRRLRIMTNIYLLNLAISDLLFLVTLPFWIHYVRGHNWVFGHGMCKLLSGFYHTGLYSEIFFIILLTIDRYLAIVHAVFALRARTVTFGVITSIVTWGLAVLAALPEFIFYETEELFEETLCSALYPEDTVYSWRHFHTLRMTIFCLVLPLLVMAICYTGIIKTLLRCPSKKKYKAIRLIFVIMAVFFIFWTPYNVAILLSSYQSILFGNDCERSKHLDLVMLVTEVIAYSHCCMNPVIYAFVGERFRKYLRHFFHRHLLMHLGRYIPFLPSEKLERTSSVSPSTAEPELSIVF
As to conditions: read-out: IC50, CCR3 antagonist; cited from earlier work.

For another data set, the target named is CCR2 (Homo sapiens, UniProt P41597). The following applies: read-out: Kd, binding affinity of CCL2 for CCR2; cited from earlier work.
CCR2, sequence (P41597 whole entry, species assumed): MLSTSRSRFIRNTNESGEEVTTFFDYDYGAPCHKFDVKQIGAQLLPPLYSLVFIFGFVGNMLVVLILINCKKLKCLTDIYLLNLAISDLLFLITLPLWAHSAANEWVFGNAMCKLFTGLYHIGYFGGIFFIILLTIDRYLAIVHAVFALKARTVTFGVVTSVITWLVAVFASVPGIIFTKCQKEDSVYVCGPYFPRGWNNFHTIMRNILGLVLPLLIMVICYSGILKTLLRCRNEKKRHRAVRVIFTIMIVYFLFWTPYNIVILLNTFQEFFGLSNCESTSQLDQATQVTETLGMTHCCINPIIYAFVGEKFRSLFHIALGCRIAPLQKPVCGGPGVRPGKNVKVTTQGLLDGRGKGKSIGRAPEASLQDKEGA
The subject of a further data set is CCR5. As to conditions: cited from earlier work.
The target of data set [4] is T1, CCR3. As to conditions: cited from earlier work.
The subject of data set [5] is hemorrhagic shock. As to the kind of experiment: Example 1 first series: 30 min hemorrhagic shock, fluid resuscitation until t=90 min. The format is in vivo, rat. As to conditions: 5.5 μmol/kg Maraviroc at t=30 min, vs vehicle or 1.1 INCB3284. The method, then:
In vivo animal experiments. All procedures were performed in accordance with the National Institutes of Health Guidelines for Use of Laboratory Animals and were approved by the University of South Florida Institutional Animal Care and Use Committeee (IS00008139). Male Sprague-Dawley rats (300-400 g, Envigo, Indianapolis, IN, USA). were anesthetized with 1.7% isoflurane via nose-cone inhalation with the SomnoSuite anesthesia system (Kent Scientific, Torrington, CT, USA). […] The left femoral artery was isolated and cannulated with a 24-gauge peripheral intravenous catheter to allow for blood withdrawal, hemodynamic monitoring, drug administration, and fluid resuscitation. Hemodynamics were continuously monitored with the SurgivetV6400 blood pressure monitor (Med-Electronics, Beltsville, MD, USA), and blood pressures and heart rate were recorded at 1-10 min intervals. All animals were observed over a 10 min period to ensure hemodynamic stability before start of the experiments. All experiments were performed randomized in alternating order. […] Physiol Res 2019; 68(4):675-679; Nassoiy S P, et al., Effects of the Kv7 voltage-activated potassium channel inhibitor linopirdine in rat models of haemorrhagic shock. Clin Exp Pharmacol Physiol 2018; Nassoiy S P, et al., Kv7 voltage-activated potassium channel inhibitors reduce fluid resuscitation requirements after hemorrhagic shock in rats. J Biomed Sci 2017; 24(1):8; Bach H Ht, et al., Proteasome inhibition prolongs survival during lethal hemorrhagic shock in rats. J Trauma Acute Care Surg 2013; 74(2):499-507; Bach H Ht, et al., Chemokine (C-X-C motif) receptor 4 and atypical chemokine receptor 3 regulate vascular alpha(1)-adrenergic receptor function. Mol Med 2014; 20:435-447), with slight modifications. In brief, rats were hemorrhaged to a mean arterial blood pressure (MAP) of less than or equal to 30 mmHg for a period of 30 minutes. At the end of the HS period (t=30 min), animals were injected with either vehicle (1 mL LR) or drug in 1 mL LR, followed by fluid resuscitation with 1 mL bolus injections of LR to maintain a systolic blood pressure (SBP) of 90 mmHg or a MAP of 60 mmHg. To avoid fluid overload, bolus injections of LR were limited to 1 mL/min. […] Animals were then resuscitated until t=90 min. At t=0, 15, 30, 60 and 90 min, blood samples were obtained, and plasma prepared. Samples were stored at -70° C. until further processing. At t=90 min, animals were euthanized (isoflurane inhalation, bilateral pneumothorax).

One may read the IC50 as the midpoint of a concentration-inhibition curve. Turning to `COC(=O)[C@H](Cc1ccc([N+](=O)[O-])cc1)NC(=O)c1cccc2ccccc12` [SB328437], the “Fluid requirements to achieve the MAP target vs vehicle” value in the data set with hemorrhagic shock [1] (0.25 μmol/kg at t=30 min) was “comparable”. The “MAP vs vehicle treated animals” value in the data set on hemorrhagic shock [1] (0.25 μmol/kg at t=30 min) was “indistinguishable”. Besides, the “fluid requirements (mean±SE)” value in the data set on hemorrhagic shock [1] (0.25 μmol/kg at t=30 min, until t=90 min) was 53 ± 7 mL/kg; with hemorrhagic shock [1] (1.1 μmol/kg at t=30 min, until t=90 min, p<0.05 vs. vehicle) it was 19.5 ± 2 mL/kg. For the same compound, the “MAP at the end of the resuscitation period (t=80-90 min)” value in the data set on hemorrhagic shock [1] (1.1 μmol/kg at t=30 min) is on record as “higher”. Besides, the “reduction of fluid requirements” value in the data set with hemorrhagic shock [1] (1.1 μmol/kg at t=30 min, until t=90 min, vs vehicle) was 63±4%. Further, the “MAP during subsequent 2% TBV hemorrhages in 5 min intervals” value in the data set on severe hemorrhagic shock (no fluid resuscitation) is recorded as “indistinguishable among groups”. In addition, the median survival time with severe hemorrhagic shock (not significantly different between groups) amounted to 64 min; in the data set on hemorrhagic shock [2] (1.1 μmol/kg SB328437 or 5 μmol/kg INCB3284 at t=60 min), 290 min. The solubility result in “solubility” was “limited”. In addition, the “animals that survived the resuscitation period” value in the data set on hemorrhagic shock [2] (1.1 μmol/kg SB328437 or 5 μmol/kg INCB3284 at t=60 min, until t=300 min, n=6) is listed as 3 of 6. Also, the fluid requirements entry with hemorrhagic shock [2] (1.1 μmol/kg at t=60 min) was “could not be significantly reduced”. Besides, the “MAP during fluid resuscitation” value in the data set on hemorrhagic shock [2] (1.1 μmol/kg at t=60 min, between t=140-200 min) is “lower”. Besides, on CCR3 [3], the IC50 is 4.5 nM.
In general, Kd refers to the concentration at which binding is half-saturated. On to “CCL2: principal endogenous agonist of chemokine (C-C motif) receptor 2 (CCR2)”, for which the Kd in the data set with CCR2 is approximately 0.5 nM. Also, the “binding affinity of CCL2 for CCR5 lower than for CCR2” value with CCR5 is reported as “more than 100 fold”. Also, in the data set with CCR3 [4], the “binding affinity of CCL2 for CCR3 lower than for CCR2” value is on record as “more than 100 fold”.
Turning to Maraviroc, in the data set on hemorrhagic shock [5], the “effect on fluid requirements” value is recorded as “did not affect fluid requirements”.
